# From patent publication US20100298270A1, “Novel Compounds and Methods of Using Them” (SYNDAX PHARMACEUTICALS, INC., priority 2007, published 2010)
smiles,measurement,value
"O=C(NCc1ccn(O)c(=O)c1)OCc1cccnc1 [Example 14, Pyridin-3-ylmethyl (1-hydroxy-2-oxo-1,2-dihydropyridin-4-yl)methylcarbamate]",melting point,145 °C
